Reference: US12116343B2, “Inhibitors of APOL1 and methods of using same” (Vertex Pharmaceuticals Incorporated, priority 2020, dated 2024)

The compounds below were run against T1, APOL1 G1 Protein (Homo sapiens, UniProt O14791, I384M/S342G) (assay: Trypanosoma brucei brucei lysis assay using APOL1 recombinant protein (AlamarBlue viability)). Details: Table 24, Compounds 287 to 465; read-out: Trypanosoma Assay (IC50).
T1 sequence (O14791 28-398 S342G/I384M): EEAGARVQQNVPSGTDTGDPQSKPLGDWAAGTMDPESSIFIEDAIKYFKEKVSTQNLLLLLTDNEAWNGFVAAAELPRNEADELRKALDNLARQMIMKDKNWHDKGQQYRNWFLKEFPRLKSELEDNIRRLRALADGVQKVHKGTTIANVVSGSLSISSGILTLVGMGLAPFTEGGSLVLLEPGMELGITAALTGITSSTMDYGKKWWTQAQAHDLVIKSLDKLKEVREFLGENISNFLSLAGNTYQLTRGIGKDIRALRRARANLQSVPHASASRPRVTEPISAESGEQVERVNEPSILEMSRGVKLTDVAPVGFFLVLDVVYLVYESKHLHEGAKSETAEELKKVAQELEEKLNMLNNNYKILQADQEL
Format: cell-based
Summary of the method: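 Bloodstream-form T. b. brucei Lister 427 VSG 221, 120,000 parasites/well in phenol red-free, FBS-free medium, lysed by recombinant APOL1 G1 with compound (10-point dose response, 0.1% DMSO final). Viability read by AlamarBlue fluorescence against a parasite standard curve.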
`NC(=O)CNCC1CC(c2c(-c3ccc(F)cc3)[nH]c3c(F)cc(F)cc23)C1` (centres unmarked) [Compound 433, 2-(((3-(5,7-difluoro-2-(4-fluorophenyl)-1H-indol-3-yl)cyclobutyl)methyl)amino)acetamide] was tested, and the IC50 was < 250 nM.
With `NC(=O)CC1CC(c2c(-c3ccc(F)cc3)[nH]c3c(F)cc(F)cc23)C1` (centres unmarked) [Compound 455] the IC50 was < 250 nM.

Same assay, conditions: Trypanosoma Assay (IC50), Trypanosoma brucei brucei lysis, recombinant APOL1, AlamarBlue
Work on `O=C([C@H]1C[C@H](c2c(-c3ccc(F)cc3)[nH]c3c(F)cc(F)cc32)C1)N1CCC(O)(O)CC1` [Compound 127] yielded an IC50 of 250 to 1000 nM.

Same assay, conditions: Trypanosoma brucei brucei lysis, recombinant APOL1, AlamarBlue; read-out: Trypanosoma Assay (IC50)
In the case of `CN(CC1(CO)CC1)C(=O)[C@H]1C[C@H](c2c(-c3ccc(F)cc3)[nH]c3c(F)cc(F)cc32)C1` [Compound 49], the IC50 is reported as > 1000 nM.
Work on `C[C@H](NC(=O)[C@H]1C[C@H](c2c(-c3ccc(F)cc3)[nH]c3c(F)cc(F)cc32)C1)C(=O)N(C)C` [Compound 65] yielded an IC50 of 250 to 1000 nM.
For `O=C(CNC(=O)[C@H]1C[C@H](c2c(-c3ccc(F)cc3)[nH]c3c(F)cc(F)cc32)C1)NC1CC1` [Compound 50], the IC50 was > 1000 nM.
For `O=C(NCC1CCOCC1)[C@H]1C[C@H](c2c(-c3ccc(F)cc3)[nH]c3c(F)cc(F)cc32)C1` [Compound 42], the IC50 was > 1000 nM.
`CN(CC(N)=O)C(=O)[C@H]1C[C@H](c2c(-c3ccc(F)cc3)[nH]c3c(F)cc(F)cc32)C1` [Compound 51] was tested, and the IC50 was 250 to 1000 nM.
`CC(NC(=O)[C@H]1C[C@H](c2c(-c3ccc(F)cc3)[nH]c3c(F)cc(F)cc32)C1)c1ccn(C)n1` (mixture of isomers) [Compound 75] was tested, and the IC50 was < 250 nM.
In the case of `CC(C)N1CCN(C(=O)[C@H]2C[C@H](c3c(-c4ccc(F)cc4)[nH]c4c(F)cc(F)cc43)C2)CC1=O` [Compound 63], the IC50 is reported as > 1000 nM.
For `CN(C)C(=O)CN(C)C(=O)[C@H]1C[C@H](c2c(-c3ccc(F)cc3)[nH]c3c(F)cc(F)cc32)C1` [Compound 62], the IC50 was > 1000 nM.
`CCNC(=O)[C@@H]1CCCN1C(=O)[C@H]1C[C@H](c2c(-c3ccc(F)cc3)[nH]c3c(F)cc(F)cc32)C1` [Compound 64] was tested, and the IC50 was > 1000 nM.
For `CC(N)(C(=O)NC(=O)[C@H]1C[C@H](c2c(-c3ccc(F)cc3)[nH]c3c(F)cc(F)cc32)C1)C(F)(F)F` (some centres unmarked) [Compound 60], the IC50 was 250 to 1000 nM.
For `O=C(NCC1CC(F)(F)C1)[C@H]1C[C@H](c2c(-c3ccc(F)cc3)[nH]c3c(F)cc(F)cc32)C1` [Compound 41], the IC50 was > 1000 nM.
`O=C(NC1(CO)CC1)[C@H]1C[C@H](c2c(-c3ccc(F)cc3)[nH]c3c(F)cc(F)cc32)C1` [Compound 47] was tested, and the IC50 was < 250 nM.
`O=C(NC1(CCO)CC1)[C@H]1C[C@H](c2c(-c3ccc(F)cc3)[nH]c3c(F)cc(F)cc32)C1` [Compound 59] gave an IC50 of 250 to 1000 nM.
For `O=C(NCC1(CO)COC1)[C@H]1C[C@H](c2c(-c3ccc(F)cc3)[nH]c3c(F)cc(F)cc32)C1` [Compound 83], the IC50 was > 1000 nM.
In the case of `CC(=O)NC1CCCN(C(=O)[C@H]2C[C@H](c3c(-c4ccc(F)cc4)[nH]c4c(F)cc(F)cc43)C2)C1` (some centres unmarked) [Compound 91], the IC50 is reported as > 1000 nM.
With `O=C(NCC1(O)CCCC1)[C@H]1C[C@H](c2c(-c3ccc(F)cc3)[nH]c3c(F)cc(F)cc32)C1` [Compound 69] the IC50 was > 1000 nM.
`O=C([C@H]1C[C@H](c2c(-c3ccc(F)cc3)[nH]c3c(F)cc(F)cc32)C1)N1CCCCC1CCO` (some centres unmarked) [Compound 94] was tested, and the IC50 was > 1000 nM.
In the case of `CC(NC(=O)[C@H]1C[C@H](c2c(-c3ccc(F)cc3)[nH]c3c(F)cc(F)cc32)C1)c1ccn[nH]1` (mixture of isomers) [Compound 81], the IC50 is reported as 250 to 1000 nM.
`COCC1(CNC(=O)[C@H]2C[C@H](c3c(-c4ccc(F)cc4)[nH]c4c(F)cc(F)cc43)C2)CC1` [Compound 53] was tested, and the IC50 was > 1000 nM.
With `CC(C)(O)C1CN(C(=O)[C@H]2C[C@H](c3c(-c4ccc(F)cc4)[nH]c4c(F)cc(F)cc43)C2)C1` [Compound 86] the IC50 was > 1000 nM.
In the case of `CN(CCO)C(=O)[C@H]1C[C@H](c2c(-c3ccc(F)cc3)[nH]c3c(F)cc(F)cc32)C1` [Compound 79], the IC50 is reported as < 250 nM.
For `COCC1(NC(=O)[C@H]2C[C@H](c3c(-c4ccc(F)cc4)[nH]c4c(F)cc(F)cc43)C2)CC1` [Compound 54], the IC50 was < 250 nM.
With `CC1(O)CN(C(=O)[C@H]2C[C@H](c3c(-c4ccc(F)cc4)[nH]c4c(F)cc(F)cc43)C2)C1` [Compound 74] the IC50 was 250 to 1000 nM.
